How the values were obtained:
[1] = Acute toxicity determined after intravenal administration in mice; format: organism-based; conditions: mouse, in vivo, iv
[2] = tested on: Rattus norvegicus; assay: Effective dose against aconitine-induced arrhythmia after intravenal administration in anesthetized rats; format: functional
[3] = organism: Rattus norvegicus; assay: Relative potency with reference to quinidine; format: functional
[4] = tested on: Rattus norvegicus; assay: Incidence of arrhythmias in rats after a intravenal administration at 4 mg/kg, expressed as no. of positive cases out of no. of tested cases (10); format: functional
[5] = tested on: Rattus norvegicus; assay: Tested for incidence of arrhythmias in rats after a intravenal administration of 2 mg/kg expressed as no. of positive cases out of no. of tested cases (10); format: functional
[6] = tested on: Cavia porcellus; assay: Amount of ouabain needed for production of ventricular extra-systoles at a dose of 2 mg/kg (iv given 5 min prior) in guinea pig; format: functional, Cardiac ventricle
[7] = tested on: Cavia porcellus; assay: Amount of ouabain needed for production of ventricular fibrillation at a dose of 2 mg/kg (iv given 5 min prior) in guinea pig; format: functional, Cardiac ventricle
[8] = tested on: Cavia porcellus; assay: Amount of ouabain needed for production of ventricular arrhythmias that causes death in guinea pig by cardiac arrest at a dose of 2 mg/kg iv given 5 min prior; format: functional, Cardiac ventricle

Structure (SMILES)	LD50 [1] [mg/kg]	ED150 [2] [mg/kg]	Relative potency [3]	No. of positive cases [4]	No. of positive cases [5]	Average dose [6] [mg/kg]	Average dose [7] [mg/kg]	Average dose [8] [mg/kg]
CC1(C)CC(C(=O)NCCCNCc2ccccc2Cl)C(C)(C)N1 (stereo not given)	31	2.4	4.9	7				
C=CCc1ccc(OCC(=O)NCCNC(=O)C2=CC(C)(C)NC2(C)C)c(OC)c1	11	6.3	1.9	7				
CC1(C)C=C(C(=O)NCCCNCc2ccc(C(F)(F)F)cc2)C(C)(C)N1	65	4.8	2.5	7				
CC1(C)C=C(C(=O)NCCCNCc2ccc(Oc3ccccc3)cc2)C(C)(C)N1	23	1.3	9.2	10				
COc1cccc(CNCCCNC(=O)C2=CC(C)(C)NC2(C)C)c1O	26	3.4	3.5	10				
C=CCOc1ccccc1CNCCCNC(=O)C1CC(C)(C)NC1(C)C (stereo not given)	13	2.1	5.7		10			
C=CCOc1cccc(CNCCCNC(=O)C2=CC(C)(C)NC2(C)C)c1	34	2.7	4.4		7			
C=CCOc1ccc(CNCCCNC(=O)C2=CC(C)(C)NC2(C)C)cc1	28	2.9	4.1	6				
CC1(C)C=C(C(=O)NCC(O)CNC(=O)c2cccs2)C(C)(C)N1 (stereo not given)	65	6.7	1.77	7				
C=C[C@H]1CN2CC[C@H]1C[C@@H]2[C@@H](O)c1ccnc2ccc(OC)cc12 [QUINIDINE]						0.1954	0.2911	0.3139
CC1(C)C=C(C(=O)NCCCNCc2cccc(OCc3ccccc3)c2)C(C)(C)N1	7	0.74	16.1		10			
CC1(C)C=C(C(=O)NCCCNCc2cccc(O)c2)C(C)(C)N1.Cl	13	8.5	1.4	4				
CC1(C)C=C(C(=O)NCCCNC(=O)COc2ccccc2)C(C)(C)N1	49	2.6	4.6	10				
CC1(C)C=C(C(=O)NCCNCc2ccccc2O)C(C)(C)N1	30	1	11.9	10				
Cc1cccc(C)c1NC(=O)C(NC(=O)C1=CC(C)(C)NC1(C)C)c1ccccc1 (stereo not given)	7.6	0.78	15.3		10			
CC1(C)C=C(C(=O)NCCCNCc2cccs2)C(C)(C)N1	65	5.3	2.2	7				
C=CCc1cc(C)ccc1OCC(=O)NCCCNC(=O)C1=CC(C)(C)NC1(C)C			4.9		8			
C=CCOc1c(CNCCCNC(=O)C2=CC(C)(C)NC2(C)C)cccc1OC	15	1.7	7	10				
CC1(C)C=C(C(=O)NCCNCc2ccc(Cl)cc2)C(C)(C)N1	82	5.4	2.2	5				
C/C=C/c1ccc(OCC(=O)NCCNC(=O)C2=CC(C)(C)NC2(C)C)c(OC)c1	18		2.9	7				

Structure (SMILES)	LD50 [1] [mg/kg]	ED150 [2] [mg/kg]	Relative potency [3]	No. of positive cases [4]	No. of positive cases [5]	Average dose [6] [mg/kg]	Average dose [7] [mg/kg]	Average dose [8] [mg/kg]
CC1(C)C=C(C(=O)NCCCNCc2ccccc2O)C(C)(C)N1	28	4.7	2.5	7				
C/C=C/c1ccc(OC(C)C(=O)NCCCNC(=O)C2=CC(C)(C)NC2(C)C)c(OC)c1 (stereo not given)	14		4.4	7				
Cc1cccc(C)c1NC(=O)C(C)NCCCNC(=O)C1CC(C)(C)NC1(C)C (stereo not given)	39	2.3	5.1	10				
COc1cc(CNCCCNC(=O)C2=CC(C)(C)NC2(C)C)ccc1O	8.7	0.47	25.3		10			
C=CCc1ccc(OC(C)C(=O)NCCNC(=O)C2=CC(C)(C)NC2(C)C)c(OC)c1 (stereo not given)	9.3	2.8	4.3		7			
C/C=C/c1ccc(OCC(=O)NCC(C)(C)CNC(=O)C2=CC(C)(C)NC2(C)C)c(OC)c1	31	3.9	3.1	6				
CC1(C)C=C(C(=O)NCCCNCc2ccccc2OCC(N)=O)C(C)(C)N1	10				1			
COc1ccccc1CNCCCNC(=O)C1=CC(C)(C)NC1(C)C.Cl	7.9	1.6	7.4	10				
CC1(C)C=C(C(=O)NCCCNCc2cccc(Oc3ccccc3)c2)C(C)(C)N1	11	0.96	12.4		10			
CC1(C)C=C(C(=O)NCCCNC(=O)CSc2ccccc2)C(C)(C)N1		6.9	1.7	7				
COc1cc(OCc2ccccc2)ccc1CNCCCNC(=O)C1=CC(C)(C)NC1(C)C	13	0.69	17.2	10				
COc1ccc(CNCCCNC(=O)C2=CC(C)(C)NC2(C)C)c(OC)c1	16	1.7	7	9				
COc1cccc(CNCCCNC(=O)C2=CC(C)(C)NC2(C)C)c1OCc1ccccc1	6.2	0.21	56.7	10				
Cc1cccc(C)c1NC(=O)C(C)NCCCNC(=O)C1=CC(C)(C)NC1(C)C (stereo not given)	26	1.3	9.1	10				
COc1cc(CNCCCNC(=O)C2=CC(C)(C)NC2(C)C)cc(OC)c1OC	22	3.8	3.1	9				
C=CCc1cc(C)ccc1OCC(=O)NCCNC(=O)C1=CC(C)(C)NC1(C)C	19				3			
CC1(C)C=C(C(=O)NCCCNCc2ccccc2OCc2ccccc2)C(C)(C)N1	9	0.6	19.8		10			
CC1(C)C=C(C(=O)NCC(O)CNCc2cccs2)C(C)(C)N1 (stereo not given)	49	7.6	1.6	8				
C=CCOc1ccc(CNCCCNC(=O)C2=CC(C)(C)NC2(C)C)cc1OC	21	2.2	5.4	10				
CC1(C)C=C(C(=O)NCCCNCc2ccc(OCc3ccccc3)cc2)C(C)(C)N1	20	1.3	9.2		8			

— ChEMBL document CHEMBL1123299, “New antiarrhythmic agents. 2,2,5,5-Tetramethyl-3-pyrroline-3-carboxamides and 2,2,5,5-tetramethylpyrrolidine-3-carboxamindes” (J Med Chem, 1986)
